Among the test systems are SF-539 CNS; LOX IMVI melanoma; HCT-15 colon; K-562 leukemia; TK-10 renal; A498 renal; HOP-62 NSCLC; EKVX NSCLC; HL-60(TB) leukemia; UACC-62 melanoma.
Common to all, as to test: NCI-60 cell line screen, 48 h

Here are results for ten compounds from PubChem BioAssay (NCI).

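Dose response: 5 concentrations. Exposure: 48 h. Format: 96-well plates. Endpoint: linear interpolation; highest concentration if not reached. GI50 is the concentration that inhibits growth by half. TGI: total growth inhibition.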

With `C=C(C)[C@@H]1CC[C@]2(C(=O)O)CC[C@]3(C)[C@H](CC[C@@H]4[C@@]5(C)CCC(NC(=O)c6cccc(OC(C)=O)c6OC(C)=O)C(C)(C)[C@@H]5CC[C@]43C)[C@@H]12` (some centres undefined), the GI50 is 0.576 µM in the assay on SF-539 CNS; 0.488 µM in the assay on LOX IMVI melanoma; 0.418 µM with HCT-15 colon; 0.332 µM in the assay on K-562 leukemia; 0.656 µM in the assay with TK-10 renal; 0.644 µM in the assay with A498 renal. In addition, the GI50 was 0.785 µM with HOP-62 NSCLC, 0.918 µM in the assay with EKVX NSCLC, 1.27 µM with HL-60(TB) leukemia and 0.209 µM in the assay on UACC-62 melanoma. In addition, the TGI in the assay on SF-539 CNS is 2.5 µM; with LOX IMVI melanoma, 1.74 µM; in the assay with HCT-15 colon, 3.73 µM; in the assay on K-562 leukemia, more than 45.7 µM; with TK-10 renal, more than 100 µM; with A498 renal, 1.97 µM. The TGI is 3.3 µM in the assay on HOP-62 NSCLC, more than 100 µM with EKVX NSCLC, 4.52 µM in the assay with HL-60(TB) leukemia and 0.618 µM in the assay on UACC-62 melanoma.

`O=C1O[C@H](c2ccccc2)[C@@H]2CC3(CCN12)OCCO3`: the TGI in the assay on SF-539 CNS, with LOX IMVI melanoma, in the assay on HCT-15 colon, in the assay on K-562 leukemia, in the assay on TK-10 renal and in the assay with A498 renal was more than 100 µM throughout. Moreover, the TGI in the assay on HOP-62 NSCLC, in the assay on EKVX NSCLC, in the assay with HL-60(TB) leukemia and in the assay on UACC-62 melanoma was more than 100 µM each time.

For the compound `COc1cc2ncn(-c3cc(O[C@@H](C)c4ccccc4Cl)c(C(N)=O)s3)c2cc1OC`, the GI50 in the assay on SF-539 CNS was 0.832 µM; with LOX IMVI melanoma, 1.05 µM; with HCT-15 colon it was 0.743 µM; in the assay with K-562 leukemia, 0.983 µM; in the assay with TK-10 renal it was 4.14 µM; with A498 renal, 1.08 µM. The GI50 with HOP-62 NSCLC is 0.744 µM; in the assay on EKVX NSCLC it was 6.66 µM; in the assay with HL-60(TB) leukemia, 0.728 µM; in the assay on UACC-62 melanoma, 0.638 µM. Moreover, the TGI in the assay on SF-539 CNS was more than 25 µM; in the assay on LOX IMVI melanoma it was more than 25 µM; in the assay with HCT-15 colon, more than 25 µM; in the assay on K-562 leukemia, more than 25 µM; with TK-10 renal it was more than 23.1 µM; in the assay with A498 renal it was 13.8 µM. The TGI is more than 25 µM in the assay on HOP-62 NSCLC, more than 25 µM in the assay with EKVX NSCLC, 2.86 µM in the assay on HL-60(TB) leukemia and more than 25 µM with UACC-62 melanoma.

For the compound `CNC(=O)c1ccc(N2C(=S)N(c3ccc(C#N)c(C(F)(F)F)c3)C(=O)C2(C)C)cc1F`, the GI50 in the assay with SF-539 CNS was more than 48.6 µM; in the assay on LOX IMVI melanoma, 36.5 µM; in the assay on HCT-15 colon, 33.2 µM; in the assay on K-562 leukemia, 33.9 µM; in the assay with TK-10 renal, more than 54.8 µM; in the assay with A498 renal, more than 35.3 µM. In addition, the GI50 in the assay on HOP-62 NSCLC is 25.1 µM; with EKVX NSCLC, 25 µM; with HL-60(TB) leukemia, 33.7 µM; in the assay on UACC-62 melanoma, 26.9 µM. For the same compound, the TGI in the assay with SF-539 CNS was more than 87.3 µM; in the assay with LOX IMVI melanoma it was more than 62.2 µM; in the assay on HCT-15 colon, more than 89.3 µM; in the assay with K-562 leukemia, more than 100 µM; in the assay on TK-10 renal, more than 100 µM; in the assay on A498 renal it was more than 71 µM. In addition, the TGI in the assay on HOP-62 NSCLC was more than 67.2 µM; in the assay on EKVX NSCLC it was more than 80.5 µM; with HL-60(TB) leukemia, more than 100 µM; in the assay on UACC-62 melanoma it was more than 72.4 µM.

In the case of `C#CC1(OC(C)=O)CCC2C3CC=C4C=C(OC(C)=O)CCC4(C)C3CCC21C` (centres undefined), the TGI was 40.1 µM in the assay with SF-539 CNS; 53.2 µM in the assay on LOX IMVI melanoma; 62.5 µM with HCT-15 colon; 83.2 µM with K-562 leukemia; 51.6 µM with TK-10 renal; more than 100 µM with A498 renal. Also, the TGI in the assay on HOP-62 NSCLC was more than 100 µM; in the assay on EKVX NSCLC it was 80 µM; with HL-60(TB) leukemia, more than 100 µM; in the assay on UACC-62 melanoma, 44.5 µM.

Regarding `Cc1nc2sc(C(=O)Nc3cccc4ccccc34)c(N)c2cc1C(O)c1ccccc1` (centres undefined), the GI50 in the assay on SF-539 CNS was 0.0341 µM; in the assay on LOX IMVI melanoma, 0.0568 µM; in the assay on HCT-15 colon it was 0.0388 µM; in the assay with K-562 leukemia, 0.0442 µM; in the assay with TK-10 renal it was 1.57 µM; in the assay with A498 renal, 0.0202 µM. The GI50 in the assay with HOP-62 NSCLC was 0.081 µM; with EKVX NSCLC it was 0.375 µM; in the assay on HL-60(TB) leukemia, 0.0376 µM; in the assay with UACC-62 melanoma, 0.0747 µM. For the same compound, the TGI in the assay on SF-539 CNS was 0.29 µM; in the assay on LOX IMVI melanoma, 6.67 µM; in the assay on HCT-15 colon it was 11.1 µM; in the assay with K-562 leukemia, more than 39.6 µM; in the assay with TK-10 renal, more than 91.5 µM; in the assay with A498 renal it was 0.0636 µM. In addition, the TGI with HOP-62 NSCLC stood at 19.1 µM; with EKVX NSCLC, 37.5 µM; in the assay on HL-60(TB) leukemia, 0.194 µM; with UACC-62 melanoma it was 12.3 µM.

Consider `C[C@]12CCC(=O)C(O)=C1CC[C@@H]1C2CC[C@]2(C)NC(=O)CCC12` (some centres undefined), for which the TGI in the assay with SF-539 CNS, in the assay with LOX IMVI melanoma, with HCT-15 colon, in the assay with K-562 leukemia, with TK-10 renal and in the assay with A498 renal was more than 100 µM each time. Besides, the TGI in the assay on HOP-62 NSCLC, in the assay on EKVX NSCLC, in the assay with HL-60(TB) leukemia and in the assay with UACC-62 melanoma was more than 100 µM throughout.

For the compound `O=c1ccs[nH]1`, the TGI in the assay on SF-539 CNS amounted to 18.3 µM; with LOX IMVI melanoma, 18.4 µM; with HCT-15 colon, 33.8 µM; with K-562 leukemia, 64.6 µM; with TK-10 renal, 32.8 µM; with A498 renal, 99.6 µM. Besides, the TGI in the assay on HOP-62 NSCLC was 38.6 µM; with EKVX NSCLC, 27.2 µM; in the assay with HL-60(TB) leukemia, 25 µM; in the assay with UACC-62 melanoma it was 39.8 µM.

In the case of `CN(C)CCNC(=O)c1cccc2nc3cc(Cl)ccc3nc12`, the TGI came to 11.4 µM with SF-539 CNS; 2.86 µM with LOX IMVI melanoma; 11.5 µM with HCT-15 colon; 4.14 µM in the assay on K-562 leukemia; 15 µM with TK-10 renal; 4.65 µM in the assay on A498 renal. The TGI was 5.61 µM in the assay on HOP-62 NSCLC, 18.1 µM in the assay with EKVX NSCLC, 13.9 µM with HL-60(TB) leukemia and 9.67 µM in the assay with UACC-62 melanoma.

With `CC(=Nc1ccccc1)C1=C(O)C(Cc2ccc(O)cc2)NC1=O` (centres undefined), the GI50 in the assay with SF-539 CNS was 0.129 µM; with LOX IMVI melanoma, 0.152 µM; in the assay on HCT-15 colon, 0.0585 µM; with K-562 leukemia, 0.044 µM; in the assay on TK-10 renal it was 0.252 µM; in the assay with A498 renal, 0.255 µM. The GI50 in the assay with HOP-62 NSCLC was 0.106 µM; with EKVX NSCLC it was 0.16 µM; with HL-60(TB) leukemia, 0.0376 µM; in the assay with UACC-62 melanoma it was 0.058 µM. Also, the TGI in the assay on SF-539 CNS was 0.703 µM; in the assay on LOX IMVI melanoma it was more than 23.1 µM; with HCT-15 colon it was more than 46.8 µM; in the assay on K-562 leukemia it was more than 50.7 µM; in the assay on TK-10 renal, more than 100 µM; in the assay with HOP-62 NSCLC, 2.46 µM. Also, the figures for the TGI in the assay with EKVX NSCLC, with HL-60(TB) leukemia and in the assay with UACC-62 melanoma were more than 100 µM, 0.176 µM and more than 100 µM, respectively.
